Article PMC11472058, “Trinucleotide cap analogs with triphosphate chain modifications: synthesis, properties, and evaluation as mRNA capping reagents” (Nucleic Acids Research, 2024)

Tested on: C57BL/6 mice
Test: In vivo translation efficacy of hEPO-encoding mRNA-LNPs (serum hEPO ELISA)
Details: 1 μg mRNA i.v., 4, 8, 24 and 48 h
Method: Two reporters were selected to determine in vivo protein production: firefly luciferase (FLuc) and human erythropoietin (hEPO). The mRNA encoding each gene was obtained by IVT using T7 RNA polymerase for co-transcriptional capping with m^7Gppp^5′SAmpG and m^7GpppAmpG as the reference cap structure. 500 μl or 1000 μl of the IVT mix (for obtaining mRNA encoding hEPO or FLuc, respectively) contained following components at indicated final concentration: transcription buffer with 2 mM spermidine and Bis-Tris pH 6.5, 1 U/μl RNase inhibitor (RiboLock, ThermoFisher Scientific), 5 mM ATP, CTP and UTP, 4 mM GTP, 10 mM DTT, 25 mM MgCl2, 0.002 U/μl inorganic pyrophosphatase (ThermoFisher Scientific), 10 mM m^7GpppAmpG or m^7Gppp^5’SAmpG, 40 ng/μl linearized plasmid as the DNA template and 0.125 μg/μl T7 RNA polymerase (in-house prepared). All components were gently mixed by pipetting and incubated for one hour at 37°C. After DNA template removal, obtained mRNA was initially purified using oligo(dT)25 resin, as previously described, and concentrated by ultrafiltration (Amicon Ultra-15 50K or 100K, Millipore) prior loading on preparative column. […] Eluate quality was analyzed on 1 × TBE 1.2% agarose gel, and the fractions containing mRNA of the highest purity were combined, desalted by ultrafiltration (Amicon Ultra-15 50K or 100K, Millipore), and precipitated. […]

With `CO[C@@H]1[C@H](OP(=O)(O)OC[C@H]2O[C@@H](n3cnc4c(=O)[nH]c(N)nc43)[C@H](O)[C@@H]2O)[C@@H](CSP(=O)([O-])OP(=O)(O)OP(=O)(O)OC[C@H]2O[C@@H](n3c[n+](C)c4c(O)nc(N)nc43)[C@H](O)[C@@H]2O)O[C@H]1n1cnc2c(N)ncnc21` [Compound 8, m^7Gppp^5’SAmpG] the “serum hEPO protein expression versus m^7GpppAmpG-capped mRNA (in words)” value (MC3 LNP) was “slight increase in protein expression” and the “serum hEPO protein expression versus m^7GpppAmpG-capped mRNA (in words)” value (SM-102 LNP) was “no significant differences”.
